Our source for the EC50 values is US20220079139A1, “CYCLOSPORIN ANALOG AND USE THEREOF” (Farsight Medical Technology (Shanghai) Co., Ltd., priority 2019, published 2022).

For one experiment, the target named is Cyclophilin D (Homo sapiens, UniProt P30405). In words: Cyclophilin inhibition binding, competitive ELISA (Cyclophilin D). As to conditions: human recombinant cyclophilin, read-out: CypD EC50. How it is done: (§1) The cyclophilin inhibition binding activity of compounds disclosed herein was determined using a competitive ELISA adapted from the methods described by Quesniaux et al. (Eur. J Immunol., 1987, 17:1359-1365). Activated ester of succinyl spacers bound to D-Lys^8-cylosporine A (D-Lys^8-Cs) are coupled to bovine serum albumin (BSA) through D-lysyl residue in position 8. BSA is dissolved in 0.1 M borate buffer, pH 9.0 (4 mg in 1.4 ml). A hundredfold molar excess of D-Lys^8-Cs dissolved in dimethyl formamide (0.6 ml) is added dropwise to the BSA under vigorous stirring. The coupling reaction is performed for 2 to 3 hours at room temperature under mild stirring and the conjugate obtained is extensively dialyzed against phosphate-buffered saline (PBS, pH 7.4).
(§2) Microtiter Plates are coated with D-Lys^8-Cs-BSA conjugate (2 μg/ml in PBS for 24 hours at 4° C.). Titration Plates are washed with Tween®/PBS and with PBS alone. To block nonspecific binding, 2% BSA/PBS (pH 7.4) is added to the wells and allowed to incubate for 2 hours at 37° C. A five-fold dilution series of the compound to be tested is made in ethanol in a separate microtiter plate. The starting concentration is 0.1 mg/mL for assays with human recombinant cyclophilin. 198 μL of 0.1 μg/mL cyclophilin solution is added to the microtiter plate immediately followed by 2 μL of diluted cyclosporine A (used as a reference compound) or the compound of the invention. The reaction between coated BSA-Cs conjugate, free cyclosporine A and cyclophilin is allowed to equilibrate overnight at 4° C. Cyclophilin is detected with anti-cyclophilin rabbit serum diluted in PBS containing 1% BSA and incubates overnight at 4° C. Titration Plates are washed as described above. Bound rabbit antibodies are then detected by goat anti-rabbit IgG conjugated to alkaline phosphatase and diluted in 1% BSA-PBS and allowed to incubate for 2 hours at 37° C. Titration Plates are washed as described above. […] The results are expressed as an EC50, which is the concentration of the compound of the invention required to achieve 50% inhibition.
In general terms: An ELISA detects its analyte on a solid surface through an enzyme-linked reagent.

In another experiment the target is Cyclophilin A (Homo sapiens, UniProt P62937). Put plainly: Cyclophilin inhibition binding, competitive ELISA (Cyclophilin A). As to conditions: human recombinant cyclophilin, read-out: CypA EC50. The method, then: as §1, §2
Cyclophilin A, sequence (P62937 whole entry): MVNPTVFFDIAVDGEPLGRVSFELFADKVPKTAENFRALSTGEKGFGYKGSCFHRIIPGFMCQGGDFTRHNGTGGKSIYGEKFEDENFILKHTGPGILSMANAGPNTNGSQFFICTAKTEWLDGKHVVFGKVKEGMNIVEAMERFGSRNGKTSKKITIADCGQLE

Cyclophilin D, sequence (P30405 30-207): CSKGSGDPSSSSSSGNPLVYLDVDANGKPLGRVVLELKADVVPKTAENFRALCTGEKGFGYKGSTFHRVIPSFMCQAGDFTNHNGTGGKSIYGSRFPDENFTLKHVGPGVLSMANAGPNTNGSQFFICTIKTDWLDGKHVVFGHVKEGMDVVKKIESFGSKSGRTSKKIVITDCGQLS

In general, EC50 refers to the concentration that produces a half-maximal response. For `C/C=C/C[C@@H](C)[C@@H](O)[C@H]1C(=O)N[C@@H](CC)C(=O)N(C)[C@H](OCCN2CCCCC2)C(=O)N(C)[C@@H](CC(C)C)C(=O)N[C@@H](C(C)C)C(=O)N(C)[C@@H](CC(C)C)C(=O)N[C@@H](C)C(=O)N[C@H](C)C(=O)N(C)[C@@H](CC(C)C)C(=O)N(C)[C@@H](CC(C)C)C(=O)N(C)[C@@H](C(C)C)C(=O)N1C` [Entry 6], the EC50 on Cyclophilin D came out at 2500 nM; on Cyclophilin A, 118 nM.
Turning to `C/C=C/C[C@@H](C)[C@@H](O)[C@H]1C(=O)N[C@@H](CC)C(=O)N(C)[C@H](OCCN2CCC2)C(=O)N(C)[C@@H](CC(C)C)C(=O)N[C@@H](C(C)C)C(=O)N(C)[C@@H](CC(C)C)C(=O)N[C@@H](C)C(=O)N[C@H](C)C(=O)N(C)[C@@H](CC(C)C)C(=O)N(C)[C@@H](CC(C)C)C(=O)N(C)[C@@H](C(C)C)C(=O)N1C` [Entry 5], the concentration giving a half-maximal response (EC50) on Cyclophilin A worked out at 66 nM.
As to `C/C=C/C[C@@H](C)[C@@H](O)[C@H]1C(=O)N[C@@H](CC)C(=O)N(C)[C@H](OCCN2CCCC2)C(=O)N(C)[C@@H](CC(C)C)C(=O)N[C@@H](C(C)C)C(=O)N(C)[C@@H](CC(C)C)C(=O)N[C@@H](C)C(=O)N[C@H](C)C(=O)N(C)[C@@H](CC(C)C)C(=O)N(C)[C@@H](CC(C)C)C(=O)N(C)[C@@H](C(C)C)C(=O)N1C` [Entry 7], the half-maximal effective concentration (EC50) on Cyclophilin D is 1200 nM; at Cyclophilin A, 12 nM.
The corresponding values for `C/C=C/C[C@@H](C)[C@@H](O)[C@H]1C(=O)N[C@@H](CC)C(=O)N(C)[C@H](OCCN(C)C(C)C)C(=O)N(C)[C@@H](CC(C)C)C(=O)N[C@@H](C(C)C)C(=O)N(C)[C@@H](CC(C)C)C(=O)N[C@@H](C)C(=O)N[C@H](C)C(=O)N(C)[C@@H](CC(C)C)C(=O)N(C)[C@@H](CC(C)C)C(=O)N(C)[C@@H](C(C)C)C(=O)N1C` [Entry 2] are 3550 nM and 202 nM.
Regarding `C/C=C/C[C@@H](C)[C@@H](O)[C@H]1C(=O)N[C@@H](CC)C(=O)N(C)[C@H](OCCCN)C(=O)N(C)[C@@H](CC(C)C)C(=O)N[C@@H](C(C)C)C(=O)N(C)[C@@H](CC(C)C)C(=O)N[C@@H](C)C(=O)N[C@H](C)C(=O)N(C)[C@@H](CC(C)C)C(=O)N(C)[C@@H](CC(C)C)C(=O)N(C)[C@@H](C(C)C)C(=O)N1C` [Entry 3], at Cyclophilin A, the EC50 was determined as 14 nM.
